ChEMBL document CHEMBL1136386, “Solid-phase synthesis of endothelin receptor antagonists” (Bioorg Med Chem Lett, 2003)

Experiments:
[1] = target: T1, Endothelin receptor type B (Homo sapiens, UniProt P24530); experiment: Antagonist activity against human Endothelin B receptor expressed in CHO cells; assay type: functional, cell-based
T1 sequence (P24530 whole entry): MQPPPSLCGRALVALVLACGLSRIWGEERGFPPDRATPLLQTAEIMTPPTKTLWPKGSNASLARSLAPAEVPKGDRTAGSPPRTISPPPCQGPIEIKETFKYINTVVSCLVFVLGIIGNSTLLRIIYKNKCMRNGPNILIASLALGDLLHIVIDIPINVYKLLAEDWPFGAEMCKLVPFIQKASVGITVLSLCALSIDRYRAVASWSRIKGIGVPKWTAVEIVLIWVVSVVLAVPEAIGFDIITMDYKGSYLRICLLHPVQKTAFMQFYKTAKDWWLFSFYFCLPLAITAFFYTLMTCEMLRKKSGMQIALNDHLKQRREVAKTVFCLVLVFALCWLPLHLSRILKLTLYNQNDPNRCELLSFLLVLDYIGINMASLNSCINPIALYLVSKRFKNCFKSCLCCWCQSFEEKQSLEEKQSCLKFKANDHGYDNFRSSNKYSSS

Endothelin-1 receptor = target: T2, Endothelin-1 receptor (Homo sapiens, UniProt P25101); experiment: Antagonist activity against human ETA receptor using CHO cells; assay type: functional, cell-based
T2 sequence (P25101 whole entry): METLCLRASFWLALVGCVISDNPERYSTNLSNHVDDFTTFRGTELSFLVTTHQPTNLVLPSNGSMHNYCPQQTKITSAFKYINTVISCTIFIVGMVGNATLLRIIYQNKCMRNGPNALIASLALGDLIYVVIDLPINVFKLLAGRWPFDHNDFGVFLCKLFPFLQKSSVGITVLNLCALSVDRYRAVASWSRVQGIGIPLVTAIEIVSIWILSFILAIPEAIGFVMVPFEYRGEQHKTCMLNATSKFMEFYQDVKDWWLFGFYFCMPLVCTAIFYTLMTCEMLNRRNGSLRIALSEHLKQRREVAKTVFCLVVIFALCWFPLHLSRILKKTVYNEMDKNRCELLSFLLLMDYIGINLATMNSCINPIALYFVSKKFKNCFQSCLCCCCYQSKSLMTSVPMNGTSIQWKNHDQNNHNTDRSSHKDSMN

Ki [1]: 344 nM | Ki (Endothelin-1 receptor): 2 nM
Structure (SMILES): CCOc1ccc(-c2cc(C)nc(OC(C(=O)O)C(C)(c3ccccc3)c3ccccc3)n2)cc1 (configuration not stated)
